Experimental data from patent publication US20200239530A1, “COMPOUNDS AND METHODS OF MODULATING PROTEIN DEGRADATION” (Vividion Therapeutics, Inc., priority 2017, published 2020).
Blank lines part the entries; values can stand above or below the compound they belong to.

Experiments:
Test in all cases: Competitive cysteine profiling of cell lysate with desthiobiotin iodoacetamide probe (96-well sample prep)
Type in all cases: binding
[1] = target: T1, cysteine residue illustrated in Table 1A or Table 2A (Homo sapiens, UniProt Q96GG9); conditions: UniProt Q96GG9; 100 uM
T1 construct: Cells were resuspended in cold PBS on ice and sonicated with a probe sonicator to achieve lysis; endogenous in cells
Method in brief: (§1)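 Sonicated cell lysate (5 mg/ml proteome) was preincubated with compound 1 h at 25 °C, then labelled with desthiobiotin iodoacetamide probe 1 h at 25 °C. After reduction, alkylation and trypsin digestion, probe-labelled peptides were streptavidin-enriched and eluted for mass-spectrometric analysis.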

[2] = target: T2, cysteine residue illustrated in Table 1A or Table 2A (Homo sapiens, UniProt Q8WV16); conditions: UniProt Q8WV16; 100 uM
T2 construct: Cells were resuspended in cold PBS on ice and sonicated with a probe sonicator to achieve lysis; endogenous in cells
Method in brief: as §1

[3] = target: T3, cysteine residue illustrated in Table 1A or Table 2A (Homo sapiens, UniProt Q66K64); conditions: UniProt Q66K64; 100 uM
T3 construct: Cells were resuspended in cold PBS on ice and sonicated with a probe sonicator to achieve lysis; endogenous in cells
Method in brief: as §1

[4] = target: T4, cysteine residue illustrated in Table 1A or Table 2A (Homo sapiens, UniProt O94941); conditions: UniProt O94941
T4 construct: Cells were resuspended in cold PBS on ice and sonicated with a probe sonicator to achieve lysis; endogenous in cells
Method in brief: as §1

[5] = target: T5, cysteine residue illustrated in Table 1A or Table 2A (Homo sapiens, UniProt Q8NHY2); conditions: UniProt Q8NHY2; 100 uM
T5 construct: Cells were resuspended in cold PBS on ice and sonicated with a probe sonicator to achieve lysis; endogenous in cells
Method in brief: as §1

[6] = target: T6, cysteine residue illustrated in Table 1A or Table 2A (Homo sapiens, UniProt Q8N3P4); conditions: UniProt Q8N3P4
T6 construct: Cells were resuspended in cold PBS on ice and sonicated with a probe sonicator to achieve lysis; endogenous in cells
Method in brief: as §1

[7] = target: T7, cysteine residue illustrated in Table 1A or Table 2A (Homo sapiens, UniProt Q6P1J9); conditions: UniProt Q6P1J9; 100 uM
T7 construct: Cells were resuspended in cold PBS on ice and sonicated with a probe sonicator to achieve lysis; endogenous in cells
Method in brief: as §1

[8] = target: T8, cysteine residue illustrated in Table 1A or Table 2A (Homo sapiens, UniProt Q8TEB1); conditions: UniProt Q8TEB1; 100 uM
T8 construct: Cells were resuspended in cold PBS on ice and sonicated with a probe sonicator to achieve lysis; endogenous in cells
Method in brief: as §1

[9] = target: T9, cysteine residue illustrated in Table 1A or Table 2A (Homo sapiens, UniProt Q9P000); conditions: UniProt Q9P000; 100 uM
T9 construct: Cells were resuspended in cold PBS on ice and sonicated with a probe sonicator to achieve lysis; endogenous in cells
Method in brief: as §1

[10] = test system: cysteine residue illustrated in Table 1A or Table 2A; conditions: for KB03_100 uM_percent_inhibition: KB03 at 100 uM; for KB02_100 uM_percent_inhibition: KB02 at 100 uM
Method in brief: as §1

[11] = target: T10, cysteine residue illustrated in Table 1A or Table 2A (Homo sapiens, UniProt Q86UW9); conditions: UniProt Q86UW9; 100 uM
T10 construct: Cells were resuspended in cold PBS on ice and sonicated with a probe sonicator to achieve lysis; endogenous in cells
Method in brief: as §1

[12] = target: T11, cysteine residue illustrated in Table 1A or Table 2A (Homo sapiens, UniProt Q8N9I9); conditions: UniProt Q8N9I9; 100 uM
T11 construct: Cells were resuspended in cold PBS on ice and sonicated with a probe sonicator to achieve lysis; endogenous in cells
Method in brief: as §1

KB05_100 uM_percent_inhibition [1]: 10% | KB05_100 uM_percent_inhibition [2]: 26% | KB05_100 uM_percent_inhibition [3]: 11% | KB05_100 uM_percent_inhibition ([4]; KB05 100 uM): 40% | KB05_100 uM_percent_inhibition [5]: 43% | KB05_100 uM_percent_inhibition ([6]; KB05 100 uM): 55% | KB05_100 uM_percent_inhibition [7]: 33% | KB05_100 uM_percent_inhibition [8]: 38% | KB05_100 uM_percent_inhibition [9]: 19%
Structure (SMILES): C=CC(=O)N(c1ccccc1)c1ccc(Br)cc1 [KB05]

Structure (SMILES): O=C(CCl)Nc1cc(C(F)(F)F)cc(C(F)(F)F)c1 [KBO3]
KB03_100 uM_percent_inhibition [1]: 26% | KB03_100 uM_percent_inhibition ([10]; target protein = UniProt accession, one row per cysteine site, UniProt Q9P0J7): 90% | KB03_100 uM_percent_inhibition ([10]; target protein = UniProt accession, one row per cysteine site, UniProt Q08380): 69% | KB03_100 uM_percent_inhibition [3]: 31% | KB03_100 uM_percent_inhibition [11]: 8% | KB03_100 uM_percent_inhibition ([4]; KB03 100 uM): 63% | KB03_100 uM_percent_inhibition [5]: 27% | KB03_100 uM_percent_inhibition ([6]; KB03 100 uM): 44% | KB03_100 uM_percent_inhibition [7]: 24% | KB03_100 uM_percent_inhibition [12]: 10% | KB03_100 uM_percent_inhibition [8]: 43% | KB03_100 uM_percent_inhibition [9]: 30%

Structure (SMILES): COc1ccc2c(c1)CCCN2C(=O)CCl [KB02]
KB02_100 uM_percent_inhibition [2]: 16% | KB02_100 uM_percent_inhibition ([10]; c0 = UniProt of target protein, one grid row per cysteine site): 24% | KB02_100 uM_percent_inhibition ([10]; target protein = UniProt accession, one row per cysteine site): 24% | KB02_100 uM_percent_inhibition ([10]; target protein = UniProt id in c0 of the row (one row per cysteine site)): 24% | KB02_100 uM_percent_inhibition [11]: 28% | KB02_100 uM_percent_inhibition [12]: 8%
